Measured values: article PMC6278399, “Synthesis and Anticancer Activity Evaluation of Hydrolyzed Derivatives of Panaxnotoginseng Saponins” (Molecules, 2018)

What was measured:
[1] = tested on: human colon cancer cells (HT-29); test: MTT cytotoxicity assay, HT-29; format: cell-based; conditions: Homo sapiens; HT-29, MTT, 48 h
Excerpt: (§1) In the study, five cancer cell lines (human colon cancer cells (HT-29), gastric cancer cells (BGC-823), cervical cancer cells (Hela), human breast cancer cells (MCF-7), and human lung cancer cells A549)), and two normal cell lines (human gastric epithelial cells (GES-1) and human ovarian epithelial cells (IOSE144)) were used for the evaluation of biological activity. IOSE144 cells were donated by Professor Piao Huri of Yanbian University, all other cells were purchased from the American Type Culture Collection (ATCC, Manassas, VA, USA). Cells were cultured in Dulbecco’s Modified Eagle’s Medium (DMEM), supplemented with 10% heat-inactivated fetal bovine serum (FBS), 1% 100 μg/mL penicillin and 100 μg/mL streptomycin in a humidified atmosphere containing 5% CO2 at 37 °C. Cell viability was measured using the MTT assay. Cells were seeded in 96 well microtiter plates in a volume of 100 μL medium. All compounds tested were dissolved and further diluted in DMSO. After overnight incubation, cells were treated with different test concentrations or carrier solvents alone in a final volume of 100 μL with five replicates each. […] Cells were treated with compound (80, 40, 20, 10, 5 μM) for 48 h. Then, 10 μL of MTT (5 mg/mL) was added to each well and the cells were incubated at 37 °C in the dark for 4 h. Supernatants were removed and formazan crystals were dissolved in DMSO (100 μL/well). The solution was agitated for 10 min, and the absorbance was measured at 490 nm using microplate reader (imark, BIO-RAD, Hercules, CA, USA) to calculate the 50% inhibitory concentration (IC50). Ginsenoside-Rg3, panaxadiol sapogenin (PD), AD-2 (25-OH-PPD) and AD-1 (25-OCH3-PPD) were used as standard reference compounds.

[2] = tested on: gastric cancer cells (BGC-823); test: MTT cytotoxicity assay, BGC-823; format: cell-based, human; conditions: Homo sapiens; BGC-823, MTT, 48 h
Excerpt: as §1

[3] = tested on: cervical cancer cells (Hela); test: MTT cytotoxicity assay, Hela; format: cell-based, human; conditions: Homo sapiens, 48 h
Excerpt: as §1

[4] = tested on: human breast cancer cells (MCF-7); test: MTT cytotoxicity assay, MCF-7; format: cell-based; conditions: Homo sapiens, MCF7; MCF-7, MTT, 48 h
Excerpt: as §1

[5] = tested on: human lung cancer cells A549; test: MTT cytotoxicity assay, A549; format: cell-based; conditions: Homo sapiens, 48 h
Excerpt: as §1

[6] = MTT cytotoxicity assay, GES-1 normal cells; format: cell-based, human; conditions: human
Excerpt: as §1

[7] = MTT cytotoxicity assay, IOSE144 normal cells; format: cell-based, human; conditions: human
Excerpt: as §1

Row | SMILES | IC50 [1] [µM] | IC50 [2] [µM] | IC50 [3] [µM] | IC50 [4] [µM] | IC50 [5] [µM] | IC50 at 48 h [6] [µM] | IC50 at 48 h [7] [µM] | melting point [°C] | IC50 at 48 h ([6]; GES-1 gastric epithelial cells (normal cell line), GES-1 normal cells, MTT, 48 h, read-out: IC50) [µM] | IC50 at 48 h ([7]; IOSE144 ovarian epithelial cells (normal cell line), IOSE144 normal cells, MTT, 48 h, read-out: IC50) [µM]
1 | COC(C)(C)CCCC(C)(O)C1CCC2(C)C1C(O)CC1C3(C)CCC(OC(=O)c4ccccc4O)C(C)(C)C3CCC12C [Compound 4a, 20(R)-25-Methoxydammarane-12β,20-diol-3β-yl-2′-hydroxybenzoate] | 50.6 ± 1.03 | 13.2 ± 0.18 | 19.26 ± 0.14 | 11.1 ± 0.35 | 35.6 ± 0.56 | > 100 | > 100 | 246 to 248 |  | 
2 | CC(=O)OC1CCC2(C)C(CCC3(C)C2CC(OC(=O)c2ccccc2O)C2C(C4(C)CCCC(C)(C)O4)CCC23C)C1(C)C [Compound 4b, 20(R)-Pananxadiol-3β-o-acetyl-12β-yl-2′-hydroxybenzoate] | 36.12 ± 0.28 | 50.26 ± 0.39 | 48.75 ± 0.37 | 39.4 ± 0.68 | 25.4 ± 0.77 | > 100 | > 100 | 238 to 240 |  | 
3 | COC(C)(C)CCCC(C)(O)C1CCC2(C)C1C(OC(=O)c1ccccc1O)CC1C3(C)CCC(OC(=O)c4ccccc4O)C(C)(C)C3CCC12C [Compound 2a, 20(R)-25-Methoxydammarane-20-hydroxy-3β,12β-di-yl-2′-hydroxybenzoate] | 32.58 ± 0.23 | 40.9 ± 0.45 | 16.5 ± 0.23 | 25.7 ± 0.43 | 26.45 ± 0.14 | > 100 | > 100 | 200 to 202 |  | 
4 | CC(C)(CCCC(C)(O)C1CCC2(C)C1C(O)CC1C3(C)CCC(OC(=O)c4ccccc4O)C(C)(C)C3CCC12C)OC(=O)c1ccccc1O [Compound 6a, 20(R)-Dammarane-12β, 20-diol-3β, 25-di-yl-2′-hydroxybenzoate] | > 100 | > 100 | 20.4 ± 0.36 | > 100 | 19.4 ± 0.59 | > 100 | > 100 | 219 to 221 |  | 
5 | CC(C)(O)CCCC(C)(O)C1CCC2(C)C1C(OC(=O)c1ccccc1O)CC1C3(C)CCC(O)C(C)(C)C3CCC12C [Compound 5a, 20(R)-Dammarane-3β,20,25-triol-12β-yl-2′-hydroxybenzoate] | 18.4 ± 0.47 | 60.5 ± 1.11 | 21.6 ± 1.08 | 18.5 ± 0.23 | 22.5 ± 0.46 | > 100 | > 100 | 258 to 260 |  | 
6 | CC1(C)CCC[C@](C)(C2CC[C@]3(C)C2[C@H](OC(=O)c2ccccc2O)CC2[C@@]4(C)CC[C@H](OC(=O)c5ccccc5O)C(C)(C)C4CC[C@]23C)O1 (stereo partly drawn) [Compound 10a, 20(R)-Pananxadiol-3β,12β-di-yl-2′-hydroxybenzoate] | 30.25 ± 0.02 | > 100 | > 100 | 41.4 ± 0.48 | 29.5 ± 0.61 | > 100 | > 100 | 232 to 234 |  | 
7 | CC1(C)CCC[C@](C)(C2CC[C@]3(C)C2[C@H](O)CC2[C@@]4(C)CC[C@H](OC(=O)c5ccccc5O)C(C)(C)C4CC[C@]23C)O1 (stereo partly drawn) [Compound 11a, 20(R)-Pananxadiol-12β-hydroxy-3β-yl-2′-hydroxybenzoate] | 26.5 ± 0.56 | 41.9 ± 0.43 | > 100 | 11.5 ± 1.47 | 23.8 ± 1.36 | > 100 | > 100 | 222 to 224 |  | 
8 | CC(=O)Oc1ccccc1C(=O)O [Acetyl-salicylic acid, reference compound] | 70.26 ± 0.38 | 87.67 ± 0.78 | > 100 | 57.1 ± 1.7 | 90.5 ± 2.13 |  |  |  | > 100 | > 100
9 | CC(=O)Oc1ccccc1C(=O)OC1CC2C3(C)CCC(O)C(C)(C)C3CCC2(C)C2(C)CCC(C3(C)CCCC(C)(C)O3)C12 [Compound 5b, 20(R)-Pananxadiol-3β-hydroxy-12β-yl-2′-acetylbenzoate] | 20.1 ± 0.74 | 26.24 ± 0.02 | 18.65 ± 0.13 | 24.36 ± 0.15 | 14.1 ± 0.52 | > 100 | > 100 | 226 to 228 |  | 
